In ChEMBL document CHEMBL1201862, “PubChem BioAssay data set” (2004):
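Tested at 5 concentrations; 48 h exposure; 96-well plates; endpoints linearly interpolated, else capped at highest concentration. GI50 = concentration required for 50% inhibition of growth.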 The source made the active and inactive calls. Cut-off read from the data, not from the text of the source: active = GI50 up to about 1.1 µM and inactive = higher.

Key:
Experiment in all cases: DTP human tumour cell line panel, 48 h
SK-OV-3 = test system: SK-OV-3
DU-145 = test system: DU-145
SNB-75 = test system: SNB-75
HT-29 = test system: HT-29
MDA-MB-231 = test system: MDA-MB-231
MCF7 = test system: MCF7
HOP-62 = test system: HOP-62
SR = test system: SR
HOP-92 = test system: HOP-92
MDA-N = test system: MDA-N
NCI-H460 = test system: NCI-H460
LOX IMVI = test system: LOX IMVI
NCI-H23 = test system: NCI-H23
BT-549 = test system: BT-549
UACC-257 = test system: UACC-257
UACC-62 = test system: UACC-62
RPMI-8226 = test system: RPMI-8226
MOLT-4 = test system: MOLT-4
HL-60 = test system: HL-60

Structure (SMILES)	GI50 (SK-OV-3)	GI50 (DU-145)	GI50 (SNB-75)	GI50 (HT-29)	GI50 (MDA-MB-231)	GI50 (MCF7)	GI50 (HOP-62)	GI50 (SR)	GI50 (HOP-92)	GI50 (MDA-N)	GI50 (NCI-H460)	GI50 (LOX IMVI)	GI50 (NCI-H23)	GI50 (BT-549)	GI50 (UACC-257)	GI50 (UACC-62)	GI50 (RPMI-8226)	GI50 (MOLT-4)	GI50 (HL-60)
CC(C)(C)c1ccc(CN2CCN(C(c3ccccc3)c3ccc(Cl)cc3)CC2)cc1 (stereo not drawn)	> 100 µM (inactive)	> 100 µM (inactive)	> 100 µM (inactive)	20.3 µM (inactive)	> 100 µM (inactive)	40.6 µM (inactive)	> 100 µM (inactive)	62.2 µM (inactive)	> 100 µM (inactive)	49.4 µM (inactive)	95.1 µM (inactive)	34.4 µM (inactive)	83.6 µM (inactive)	> 100 µM (inactive)	35.9 µM (inactive)	> 100 µM (inactive)	33.3 µM (inactive)	44.6 µM (inactive)	
c1ccc2c[n+](CCCC[n+]3ccc4ccccc4c3)ccc2c1	> 100 µM (inactive)	> 100 µM (inactive)	> 100 µM (inactive)	> 100 µM (inactive)	> 100 µM (inactive)	> 100 µM (inactive)	> 100 µM (inactive)	> 100 µM (inactive)		> 100 µM (inactive)	> 100 µM (inactive)	> 100 µM (inactive)	> 100 µM (inactive)	> 100 µM (inactive)	> 100 µM (inactive)	> 100 µM (inactive)	> 100 µM (inactive)		> 100 µM (inactive)
COc1cccc(-c2nc(O)c3ccccc3n2)c1	19.7 µM (inactive)	29.1 µM (inactive)		21.2 µM (inactive)	25.3 µM (inactive)	22.1 µM (inactive)	17.5 µM (inactive)	> 100 µM (inactive)	27 µM (inactive)	17.3 µM (inactive)	23.2 µM (inactive)	52.6 µM (inactive)	26.7 µM (inactive)	24.8 µM (inactive)	21.7 µM (inactive)	20.1 µM (inactive)		86.5 µM (inactive)	> 100 µM (inactive)
O=C1CC(C(=O)N2CCCCC2)n2c(=O)n(-c3ccccc3)c(=O)n2C1 (stereo not drawn)	> 100 µM (inactive)	> 100 µM (inactive)	> 100 µM (inactive)	> 100 µM (inactive)	> 100 µM (inactive)	> 100 µM (inactive)	> 100 µM (inactive)			> 100 µM (inactive)	> 100 µM (inactive)	> 100 µM (inactive)	> 100 µM (inactive)	> 100 µM (inactive)	> 100 µM (inactive)	> 100 µM (inactive)			
COC(=O)c1ccccc1C1CN=NC12Cc1c(C)cc(C)cc1C2=O (stereo not drawn)	> 100 µM (inactive)	> 100 µM (inactive)	58.2 µM (inactive)	> 100 µM (inactive)	45.4 µM (inactive)	> 100 µM (inactive)	> 100 µM (inactive)		> 100 µM (inactive)	> 100 µM (inactive)	> 100 µM (inactive)	> 100 µM (inactive)	> 100 µM (inactive)	> 100 µM (inactive)	> 100 µM (inactive)	> 100 µM (inactive)		> 100 µM (inactive)	> 100 µM (inactive)
CC(=O)Oc1cc(Cl)c(C)c2c1[C@H]1CC[C@]3(C)[C@@H](OC(C)=O)CC[C@H]3[C@@H]1CC2		> 100 µM (inactive)	> 100 µM (inactive)	61.4 µM (inactive)	> 100 µM (inactive)	83.4 µM (inactive)	> 100 µM (inactive)		> 100 µM (inactive)	> 100 µM (inactive)	> 100 µM (inactive)	> 100 µM (inactive)	> 100 µM (inactive)	> 100 µM (inactive)	> 100 µM (inactive)	35 µM (inactive)	29.5 µM (inactive)	78.2 µM (inactive)	53.6 µM (inactive)
CC(C)N(C(C)C)S(=O)(=O)CC12CCC(C/C1=N\O)C2 (stereo not drawn)	> 100 µM (inactive)	> 100 µM (inactive)	> 100 µM (inactive)	> 100 µM (inactive)	> 100 µM (inactive)	> 100 µM (inactive)	> 100 µM (inactive)	> 100 µM (inactive)		> 100 µM (inactive)	> 100 µM (inactive)	> 100 µM (inactive)	> 100 µM (inactive)	> 100 µM (inactive)	> 100 µM (inactive)	> 100 µM (inactive)		> 100 µM (inactive)	> 100 µM (inactive)
O=C1OC(c2ccccc2)=N/C1=C\c1ccc(F)cc1	> 100 µM (inactive)	> 100 µM (inactive)	> 100 µM (inactive)	> 100 µM (inactive)	> 100 µM (inactive)		42.4 µM (inactive)	> 100 µM (inactive)	> 100 µM (inactive)	> 100 µM (inactive)	> 100 µM (inactive)	38.9 µM (inactive)	> 100 µM (inactive)	75.3 µM (inactive)	> 100 µM (inactive)	> 100 µM (inactive)	38.9 µM (inactive)	50.6 µM (inactive)	> 100 µM (inactive)
O=C1CC(=O)NC(NNS(=O)(=O)c2ccccc2)=N1	> 100 µM (inactive)	> 100 µM (inactive)	> 100 µM (inactive)	> 100 µM (inactive)	> 100 µM (inactive)	> 100 µM (inactive)	> 100 µM (inactive)	> 100 µM (inactive)	> 100 µM (inactive)	> 100 µM (inactive)	> 100 µM (inactive)		> 100 µM (inactive)	> 100 µM (inactive)	> 100 µM (inactive)	> 100 µM (inactive)	> 100 µM (inactive)	> 100 µM (inactive)	
O=C(Nn1c(-c2ccccc2)nc2ccccc2c1=O)c1ccc(O)cc1	> 100 µM (inactive)	> 100 µM (inactive)	> 100 µM (inactive)	> 100 µM (inactive)	> 100 µM (inactive)	> 100 µM (inactive)	> 100 µM (inactive)	> 100 µM (inactive)	> 100 µM (inactive)	> 100 µM (inactive)	> 100 µM (inactive)		> 100 µM (inactive)	> 100 µM (inactive)	> 100 µM (inactive)	> 100 µM (inactive)	> 100 µM (inactive)	> 100 µM (inactive)	> 100 µM (inactive)
Nc1nc(N)c2c(n1)NC(c1ccccc1)CC(/C=C/c1ccc(Cl)cc1)=N2 (stereo not drawn)	15.7 µM (inactive)	9.23 µM (inactive)	18.5 µM (inactive)	3.95 µM (inactive)	3.23 µM (inactive)	3.48 µM (inactive)	14.8 µM (inactive)		3.94 µM (inactive)	5.55 µM (inactive)	4.41 µM (inactive)	3.49 µM (inactive)	3.69 µM (inactive)	17.5 µM (inactive)	2.25 µM (inactive)	11.6 µM (inactive)	3.12 µM (inactive)	1.89 µM (inactive)	10.2 µM (inactive)
CN1CCc2c(sc3nc(Nc4ccccc4)n(N)c(=O)c23)C1		> 100 µM (inactive)		43.8 µM (inactive)	> 100 µM (inactive)	51.4 µM (inactive)	> 100 µM (inactive)			> 100 µM (inactive)	> 100 µM (inactive)		> 100 µM (inactive)	> 100 µM (inactive)	60.4 µM (inactive)	38.4 µM (inactive)	83 µM (inactive)	65 µM (inactive)	19.8 µM (inactive)
COc1c(O)cc2ccnc3c2c1N(C)C=C3	> 100 µM (inactive)	> 100 µM (inactive)	> 100 µM (inactive)		> 100 µM (inactive)	> 100 µM (inactive)	> 100 µM (inactive)	10.1 µM (inactive)		> 100 µM (inactive)	64.6 µM (inactive)	> 100 µM (inactive)	> 100 µM (inactive)	> 100 µM (inactive)	> 100 µM (inactive)	> 100 µM (inactive)	> 100 µM (inactive)	91.6 µM (inactive)	
CCOC(=O)C1C[C@H]2CO[C@H](c3ccccc3)N2C1=O (stereo partly drawn)		> 100 µM (inactive)	> 100 µM (inactive)	> 100 µM (inactive)	> 100 µM (inactive)	> 100 µM (inactive)		> 100 µM (inactive)	> 100 µM (inactive)	> 100 µM (inactive)	> 100 µM (inactive)	> 100 µM (inactive)	> 100 µM (inactive)	> 100 µM (inactive)	> 100 µM (inactive)	> 100 µM (inactive)	> 100 µM (inactive)	> 100 µM (inactive)	
Cc1cc2c(c(S(=O)(=O)c3ccccc3[N+](=O)[O-])c1)NCCC2	> 100 µM (inactive)	77.1 µM (inactive)	> 100 µM (inactive)	> 100 µM (inactive)	> 100 µM (inactive)	58.6 µM (inactive)	> 100 µM (inactive)	> 100 µM (inactive)		34.8 µM (inactive)	66.7 µM (inactive)	47.2 µM (inactive)	59.7 µM (inactive)	19.1 µM (inactive)		17.8 µM (inactive)	85.3 µM (inactive)		26.2 µM (inactive)
CC[C@H]1C=CCC[C@@]2(C[C@@H]3CC[C@@H]4[C@H](C(=O)OCCCCCCCCCCCCCCCC(=O)O)[C@]5(CCC[C@@H](C)O5)NC(=[N+]34)N2)O1 [CRAMBESCIDIN 657]	5.38 µM (inactive)	0.191 µM (active)		0.116 µM (active)	0.281 µM (active)	0.214 µM (active)	0.367 µM (active)	0.0521 µM (active)	0.153 µM (active)	0.189 µM (active)	0.188 µM (active)	0.12 µM (active)	0.488 µM (active)	0.314 µM (active)	0.12 µM (active)	0.0927 µM (active)	0.109 µM (active)	0.109 µM (active)	0.151 µM (active)
